Experimental data taken from patent publication US20250339426A1, “GCN2 MODULATOR FOR TREATING CANCER” (HIBERCELL, INC., priority 2022, published 2025).

Assays:
[1] = system: 786-O (human renal cell carcinoma cancer cells); assay: In vivo tumor growth inhibition, 786-O xenograft; parameters: species or system BALB/c nude mice; details: HC-7366 single agent, 3 mg/kg twice daily (FIG. 58)
Description: 786-O (human renal cell carcinoma cancer cells): Female 6-8 weeks old BALB/c nude mice were inoculated subcutaneously on the right flank with 786-O tumor cells (5×10^6) in 0.1 ml of RPMI1640 medium without serum for tumor development. […] For the DC101 combination study, DC101 (murine monoclonal anti-VEGFR2 antibody) was dosed at 15 mg/kg twice a week by intraperitoneal injection.
(§1) [formula] • 2.2.2 Tumor Measurements: The measurement of tumor size was conducted three times weekly with a caliper and recorded. The tumor volume (mm^3) was estimated using the formula: TV=a×b^2/2, where “a” and “b” is long and short diameters of a tumor, respectively. Tumor volume was calculated using the formula [tumor volume (mm^3)=π/6×length×width^2).
(§2) Regression was calculated using the formula=100×ΔT/T initial, if ΔT<0. Animals with 0 mm^3 tumor volume (no measurable tumor) for three consecutive measurements were considered as complete responders and animals with 50% tumor regressions were partial responders.
Female 6-8 weeks old BALB/c nude mice were inoculated subcutaneously on the right flank with 786-O tumor cells (5×10^6) in 0.1 ml of RPMI1640 medium without serum for tumor development (see Example 6). […]

[2] = system: NCI-H1975 (human non-small cell lung cancer cells); assay: In vivo tumor growth inhibition, NCI-H1975 xenograft; parameters: species or system Athymic Nude-Foxn1nu mice; details: HC-7366 3 mg/kg twice daily oral
Description: NCI-H1975 (human non-small cell lung cancer cells): Female 7-8 weeks old Athymic Nude-Foxn1nu mice were inoculated subcutaneously on the right flank with NCI-H1975 tumor cells (2.5×10^6) in 0.1 ml of RPMI1640 medium without serum for tumor development. Single agent HC-7366 was dosed at 3 mg/kg, osimertinib at 2.5 mg/kg and dacomitinib at 15 mg/kg. HC-7366 was combined with either osimertinib or dacomitinib. The vehicle for the groups was 0.5% methyl cellulose. The treatments were started when the mean tumor size reached approximately 205 mm^3 at Day 22 post inoculation and continued until end of study. HC-7366 was given twice daily by oral gavage whereas osimertinib or dacomitinib were administered once a day by oral gavage (FIGS. 131 and 133).
as §1, §2

[3] = system: CTG-2227; assay: Ex vivo AML PDX cell viability (Cell Titer Glo); type: cell-based; details: Homo sapiens, 144 h; PDX model CTG-2227, 6 days; read-out: HC-7366 EC50
Description: (§3) . Cell viability was assayed after treating PDX models with DMSO or HC-7366 for 6 days using a plate-based luminescence assay (Cell Titer Glo). […]
(§4) EC50 values were calculated to the bottom of the curve and are provided below. Viability curves are provided for the models CTG-2229 (FIG. 81), CTG-3680 (FIG. 82), CTG-3667 (FIG. 83), CTG-2456 (FIG. 84), CTG-2457 (FIG. 85), and CTG-2454 (FIG. 86).

[4] = system: CTG-2232; assay: Ex vivo AML PDX cell viability (Cell Titer Glo); type: cell-based; details: Homo sapiens, 144 h; PDX model CTG-2232, 6 days; read-out: HC-7366 EC50
Description: as §3, §4

[5] = system: CTG-2233; assay: Ex vivo AML PDX cell viability (Cell Titer Glo); type: cell-based; details: Homo sapiens, 144 h; PDX model CTG-2233, 6 days; read-out: HC-7366 EC50
Description: as §3, §4

[6] = system: CTG-2234; assay: Ex vivo AML PDX cell viability (Cell Titer Glo); type: cell-based; details: Homo sapiens, 144 h; PDX model CTG-2234, 6 days; read-out: HC-7366 EC50
Description: as §3, §4

[7] = system: CTG-2236; assay: Ex vivo AML PDX cell viability (Cell Titer Glo); type: cell-based; details: Homo sapiens, 144 h; PDX model CTG-2236, 6 days; read-out: HC-7366 EC50
Description: as §3, §4

[8] = system: CTG-2453; assay: Ex vivo AML PDX cell viability (Cell Titer Glo); type: cell-based; details: Homo sapiens, 144 h; PDX model CTG-2453, 6 days; read-out: HC-7366 EC50
Description: as §3, §4

[9] = system: CTG-2455; assay: Ex vivo AML PDX cell viability (Cell Titer Glo); type: cell-based; details: Homo sapiens, 144 h; PDX model CTG-2455, 6 days; read-out: HC-7366 EC50
Description: as §3, §4

[10] = system: CTG-2457; assay: Ex vivo AML PDX cell viability (Cell Titer Glo); type: cell-based; details: Homo sapiens, 144 h; PDX model CTG-2457, 6 days; read-out: HC-7366 EC50
Description: as §3, §4

[11] = system: CTG-2700; assay: Ex vivo AML PDX cell viability (Cell Titer Glo); type: cell-based; details: Homo sapiens, 144 h; PDX model CTG-2700, 6 days; read-out: HC-7366 EC50
Description: as §3, §4

[12] = system: CTG-2774; assay: Ex vivo AML PDX cell viability (Cell Titer Glo); type: cell-based; details: Homo sapiens, 144 h; PDX model CTG-2774, 6 days; read-out: HC-7366 EC50
Description: as §3, §4

[13] = system: CTG-3439; assay: Ex vivo AML PDX cell viability (Cell Titer Glo); type: cell-based; details: Homo sapiens, 144 h; PDX model CTG-3439, 6 days; read-out: HC-7366 EC50
Description: as §3, §4

[14] = system: CTG-3673; assay: Ex vivo AML PDX cell viability (Cell Titer Glo); type: cell-based; details: Homo sapiens, 144 h; PDX model CTG-3673, 6 days; read-out: HC-7366 EC50
Description: as §3, §4

[15] = system: CTG-3674; assay: Ex vivo AML PDX cell viability (Cell Titer Glo); type: cell-based; details: Homo sapiens, 144 h; PDX model CTG-3674, 6 days; read-out: HC-7366 EC50
Description: as §3, §4

[16] = system: CTG-3679; assay: Ex vivo AML PDX cell viability (Cell Titer Glo); type: cell-based; details: Homo sapiens, 144 h; PDX model CTG-3679, 6 days; read-out: HC-7366 EC50
Description: as §3, §4

[17] = system: CTG-3680; assay: Ex vivo AML PDX cell viability (Cell Titer Glo); type: cell-based; details: Homo sapiens, 144 h; PDX model CTG-3680, 6 days; read-out: HC-7366 EC50
Description: as §3, §4

CNC(=O)c1ncn2cc(-c3c(F)ccc(NS(=O)(=O)c4cc(Cl)cnc4OC)c3F)ncc12 [HC-7366, 6-(3-((5-chloro-2-methoxypyridine)-3-sulfonamido)-2,6-difluorophenyl)-N-methylimidazo[1,5-a]pyrazine-1-carboxamide]
TGI % [1]: ~78%
TGI [2]: 59%
EC50 [3]: 39.9 µM
EC50 [4]: 84.3 µM
EC50 [5]: 102 µM
EC50 [6]: 65.5 µM
EC50 [7]: 36.5 µM
EC50 [8]: 180 µM
EC50 [9]: 35.7 µM
EC50 [10]: 248 µM
EC50 [11]: 333 µM
EC50 [12]: 96.9 µM
EC50 [13]: 349 µM
EC50 [14]: 65.6 µM
EC50 [15]: 129 µM
EC50 [16]: 107 µM
EC50 [17]: 231 µM
